Results on 39 compounds are retold here after patent US9439436B2, “Use of aryl carbamates in agriculture and other plant-related areas” (North Carolina State University, priority 2010, dated 2016).

The subject of data set [1] is methicillin-resistant S. aureus (MRSA). The experiment in a line: biofilm inhibition, crystal violet reporter assay. In kind it is cell-based.
Data set [2] concerns S. aureus strains 29213, 29740, and 25923. The experiment in a line: testing of the library on S. aureus strains. In kind it is cell-based. The note with it: refers to Tables 2 and 3, not given.
For data set [3], the system named is multi-drug resistant Acinetobacter baumannii (MDRAB). The experiment in a line: biofilm inhibition, crystal violet reporter assay. In kind it is cell-based.
Data set [4] concerns R. salexigens. The settings on record: reported by Yamada et al.; cited from earlier work.
Data set [5] deals with vancomycin-resistant Enterococcus faecium (VRE). The experiment in a line: biofilm inhibition, crystal violet reporter assay. In kind it is cell-based.
Data set [6] deals with R. salexigens. The experiment in a line: biofilm inhibition, crystal violet reporter assay. It is filed as cell-based, Rhodospirillum salexigens.
Data set [7] concerns S. epidermidis. The experiment in a line: biofilm inhibition, crystal violet reporter assay. It is filed as cell-based.
The test system of data set [8] is E. coli. The experiment in a line: biofilm inhibition, crystal violet reporter assay. It is filed as cell-based.
The test system of data set [9] is bacteria. The note with it: literature statement; cited from earlier work.

With `CCNC(=O)NCCc1ccc(Br)cc1` [Compound 11g, 1-(4-bromophenethyl)-3-ethylurea], the melting point was in the range of 137 to 139 °C.

`CC(C)CCC[C@@H](C)C1CCC2[C@@H]3CC=C4C[C@@H](OC(=O)NCCCc5ccccc5)CC[C@]4(C)[C@H]3CC[C@]12C` (some centres unmarked) yielded a melting point of 87 to 89 °C.

Take `CCNC(=S)NC1Cc2ccccc2C1` [Compound 3h, 1-(2,3-dihydro-1H-inden-2-yl)-3-ethylthiourea]: the melting point was in the range of 87 to 91 °C.

As for `CC(C)(C)OC(=O)NCCn1nccn1` [Compound 5e, tert-butyl 2-(2H-1,2,3-triazol-2-yl)ethylcarbamate], the melting point was in the range of 64 to 66 °C.

As for `CC(C)CCC[C@@H](C)C1CCC2[C@@H]3CC=C4C[C@@H](OC(=O)NCCn5nccn5)CC[C@]4(C)[C@H]3CC[C@]12C` (some centres unmarked), the melting point fell in the range of 135 to 139 °C.

`CC(C)[C@@H]1CC[C@@H](C)C[C@H]1OC(=O)NCCc1ccccc1` [Compound 2a, (1R, 2 S, 5R)-2-isopropyl-5-methylcyclohexyl phenethylcarbamate]: the melting point lay within 84 to 86 °C.

In turn, `CCNC(=O)NCCc1ccc(N)cc1` [Compound 8g, 1-(4-aminophenethyl)-3-ethylurea] yielded a melting point of 101 to 103 °C.

`CC(C)[C@@H]1CC[C@@H](C)C[C@H]1OC(=O)NCCc1ccccn1` [Compound 9a, (1R, 2 S, 5R)-2-isopropyl-5-methylcyclohexyl 2-(pyridin-2-yl)ethylcarbamate] yielded a melting point of 59 to 63 °C. Also, in data set [1] (refers to Tables 2 and 3, not given), the “IC50 values against MRSA (in words)” value is “lowest IC50 values”. The “activity against 29213, 29740, and 25923 (in words)” value in data set [2] was “worked well”.

Turning to `CCNC(=S)N1CCc2ccccc21` [Compound 6h, N-ethylindoline-1-carbothioamide], the melting point fell in the range of 88 to 91 °C.

For the compound `CC(C)CCC[C@@H](C)C1CCC2[C@@H]3CC=C4C[C@@H](OC(=O)NC5Cc6ccccc6C5)CC[C@]4(C)[C@H]3CC[C@]12C` (some centres unmarked), the melting point is 114 to 116 °C.

In the case of `Nc1ccc(CCNC(=O)OCc2ccccc2)cc1` [Compound 8c, benzyl 4-aminophenethylcarbamate], the melting point lay in the range of 70 to 73 °C.

In the case of `CCOC(=O)NCCc1ccccc1` [Compound 2d, ethyl N-(2-phenethyl) carbamate], the “% Inhibition (200 μM 2d) of biofilm formation” value in [3] came out at 52.0%; in data set [1] (200 μM, MRSA) it was 68.1%; in data set [5] it was 80.2%; in data set [6] it was 59.7%; in data set [7], 63.1%; in data set [8], 40.8%. In addition, the “antibiofilm activity against Rhodospirillum salexigens” value in [4] is “moderate antibiofilm activity”.

As to `Cc1ccc(C(C)C)cc1O` [carvacrol], in [9], the antimicrobial activity result is given as “known to possess antimicrobial activity”.

For `COc1ccc(CCNC(=O)O[C@@H]2C[C@H](C)CC[C@H]2C(C)C)cc1` [Compound 12a, (1R, 2 S, 5R)-2-isopropyl-5-methylcyclohexyl 4-methoxyphenethylcarbamate], the melting point is 95 to 98 °C.

Turning to `CC(C)CCC[C@@H](C)C1CCC2[C@@H]3CC=C4C[C@@H](OC(=O)N5CCCc6ccccc65)CC[C@]4(C)[C@H]3CC[C@]12C` (some centres unmarked), the melting point was in the range of 107 to 110 °C.

For the compound `O=C(NC1Cc2ccccc2C1)OCc1ccccc1` [Compound 3c, benzyl 2,3-dihydro-1H-inden-2-ylcarbamate], the melting point fell in the range of 159 to 161 °C.

With `CC(C)[C@@H]1CC[C@@H](C)C[C@H]1OC(=O)NCCCc1ccccc1` [Compound 4a, (1R, 2 S, 5R)-2-isopropyl-5-methylcyclohexyl 3-phenylpropylcarbamate], the melting point was 75 to 78 °C.

For the compound `CC(C)[C@@H]1CC[C@@H](C)C[C@H]1OC(=O)NC1Cc2ccccc2C1` [Compound 3a, (1R, 2 S, 5R)-2-isopropyl-5-methylcyclohexyl 2,3-dihydro-1H-inden-2-ylcarbamate], the melting point was in the range of 167 to 170 °C.

In turn, `CCNC(=O)N1CCc2ccccc21` [Compound 6g, N-ethylindoline-1-carboxamide] had a melting point of 111 to 113 °C.

`CC(C)(C)OC(=O)NC1Cc2ccccc2C1` [Compound 3e, tert-butyl 2,3-dihydro-1H-inden-2-ylcarbamate] had a melting point of 51 to 53 °C.

`CC1CCC(C(C)C)C(O)C1` (single isomer, unassigned; (-)) [(−)-menthol]: in [9], the antimicrobial activity entry is “known to possess antimicrobial activity”.

Take `CC(C)CCC[C@@H](C)C1CCC2[C@@H]3CC=C4C[C@@H](OC(=O)NCCc5ccccc5)CC[C@]4(C)[C@H]3CC[C@]12C` (some centres unmarked): the melting point lay within 74 to 76 °C.

As for `CCNC(=S)N1CCCc2ccccc21` [Compound 7h, N-ethyl-3,4-dihydroquinoline-1(2H)-carbothioamide], the melting point lay within 55 to 57 °C.

The compound `CCNC(=O)NC1Cc2ccccc2C1` [Compound 3g, 1-(2,3-dihydro-1H-inden-2-yl)-3-ethylurea] gave a melting point of 117 °C.

On to `CCSC(=O)NC1Cc2ccccc2C1` [Compound 3b, S-ethyl 2,3-dihydro-1H-inden-2-ylcarbamothioate], for which the melting point lay in the range of 107 to 110 °C.

In the case of `CC(C)[C@H]1CC[C@H](C)C[C@@H]1OC(=O)NCCc1ccccn1` [Compound 9k, (1 S,2R, 5 S)-2-isopropyl-5-methylcyclohexyl 2-(pyridin-2-yl)ethylcarbamate], the melting point lay in the range of 57 to 59 °C.

Regarding `CCNC(=S)NCCc1ccccc1` [Compound 2h, 1-ethyl-3-phenethylthiourea], the melting point fell in the range of 56 to 58 °C.

The compound `CC(C)CCC[C@@H](C)C1CCC2[C@@H]3CC=C4C[C@@H](OC(=O)N5CCc6ccccc65)CC[C@]4(C)[C@H]3CC[C@]12C` (some centres unmarked) showed a melting point of 157 to 159 °C.

In the case of `CCNC(=O)NCCCc1ccccc1` [Compound 4g, 1-ethyl-3-(3-phenylpropyl)urea], the melting point worked out at 48 °C.

`CC(C)[C@@H]1CC[C@@H](C)C[C@H]1OC(=O)NCCc1ccc(Br)cc1` [Compound 11a, (1R, 2 S, 5R)-2-isopropyl-5-methylcyclohexyl 4-bromophenethylcarbamate] displayed a melting point of 104 to 106 °C.

`CC(C)CCC[C@@H](C)C1CCC2[C@@H]3CC=C4C[C@@H](OC(=O)NCCc5ccc(Br)cc5)CC[C@]4(C)[C@H]3CC[C@]12C` (some centres unmarked) registered a melting point of 142 to 145 °C.

`CCNC(=O)NCCn1nccn1` [Compound 5g, 1-(2-(2H-1,2,3-triazol-2-yl)ethyl)-3-ethylurea]: the melting point was determined as 109 °C.

Compound `CCOC(=O)NCCc1ccc(Br)cc1` [Compound 11d, ethyl 4-bromophenethylcarbamate] yielded a melting point of 63 to 65 °C.

`Cc1ccc(C(C)C)c(O)c1` [thymol]: in data set [9], the antimicrobial activity entry was “known to possess antimicrobial activity”.

With `CCNC(=O)NCCc1c[nH]c2ccccc12` [Compound 10g, 1-(2-(1H-indol-3-yl)ethyl)-3-ethylurea], the melting point lay in the range of 109 to 112 °C.

`CCSC(=O)NCCc1c[nH]c2ccccc12` [Compound 10b, S-ethyl 2-(1H-indol-3-yl)ethylcarbamothioate] came in with a melting point of 68 to 70 °C.

Consider `CCNC(=O)NCCc1ccccc1` [Compound 2g, 1-ethyl-3-phenethylurea], for which the melting point fell in the range of 75 to 77 °C.

`CCNC(=S)NCCCc1ccccc1` [Compound 4h, 1-ethyl-3-(3-phenylpropyl)thiourea] registered a melting point of 51 to 53 °C.

On to `CCNC(=S)NCCn1nccn1` [Compound 5h, 1-(2-(2H-1,2,3-triazol-2-yl)ethyl)-3-ethylthiourea], for which the melting point was 91 to 93 °C.
